Tests used:
Italian ryegrass [1] = test: Test E preemergence; assay type: in vivo, Lolium multiflorum; details: for Ryegrass, Italian plant response rating: scale 0 to 100 (0 no effect, 100 complete control); for Plant response rating, Ryegrass, Italian: scale 0 to 100, 0 no effect, 100 complete control
Method in brief: (§1)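 Test chemicals formulated in a non-phytotoxic solvent mixture containing a surfactant were applied preemergence to seeds in silt loam soil or postemergence to plants at the 1- to 4-leaf stage in potting mix. After 14 to 21 days in a greenhouse, injury was visually rated against controls on a 0-100 scale (0 = no effect, 100 = complete control).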

ragweed = test: Test E preemergence; assay type: in vivo, Ambrosia elatior; details: for Ragweed plant response rating: scale 0 to 100 (0 no effect, 100 complete control); for Plant response rating, Ragweed: scale 0 to 100, 0 no effect, 100 complete control
Method in brief: as §1

field bindweed = test: Test E postemergence; assay type: in vivo, Convolvulus arvensis; details: Convolvulus arvensis, post-emergence, read-out: Plant response rating, Field Bindweed
Method in brief: as §1

soybean = test: Test E preemergence; assay type: in vivo, Glycine max; details: for Soybean plant response rating: scale 0 to 100 (0 no effect, 100 complete control); for Plant response rating, Soybean: scale 0 to 100, 0 no effect, 100 complete control
Method in brief: as §1

Brazilian crabgrass [2] = test: Test E preemergence; assay type: in vivo, Digitaria horizontalis; details: for Crabgrass, Brazil plant response rating: scale 0 to 100 (0 no effect, 100 complete control); for Plant response rating, Crabgrass, Brazil: scale 0 to 100, 0 no effect, 100 complete control
Method in brief: as §1

Italian ryegrass [3] = test: Test E postemergence; assay type: in vivo, Lolium multiflorum; details: Lolium multiflorum, post-emergence, read-out: Plant response rating, Ryegrass, Italian
Method in brief: as §1

palmer pigweed = test: Test E preemergence; assay type: in vivo, Amaranthus palmeri; details: for Pigweed, Palmer plant response rating: scale 0 to 100 (0 no effect, 100 complete control); for Plant response rating, Pigweed, Palmer: scale 0 to 100, 0 no effect, 100 complete control
Method in brief: as §1

giant foxtail = test: Test E preemergence; assay type: in vivo, Setaria faberii; details: for Foxtail, Giant plant response rating: scale 0 to 100 (0 no effect, 100 complete control); for Plant response rating, Foxtail, Giant: scale 0 to 100, 0 no effect, 100 complete control
Method in brief: as §1

morningglory = test: Test E preemergence; assay type: in vivo, Ipomoea coccinea; details: for Morningglory plant response rating: scale 0 to 100 (0 no effect, 100 complete control); for Plant response rating, Morningglory: scale 0 to 100, 0 no effect, 100 complete control
Method in brief: as §1

velvetleaf = test: Test E preemergence; assay type: in vivo, Abutilon theophrasti; details: for Velvetleaf plant response rating: scale 0 to 100 (0 no effect, 100 complete control); for Plant response rating, Velvetleaf: scale 0 to 100, 0 no effect, 100 complete control
Method in brief: as §1

sandbur = test: Test E preemergence; assay type: in vivo, Cenchrus echinatus; details: for Sandbur plant response rating: scale 0 to 100 (0 no effect, 100 complete control); for Plant response rating, Sandbur: scale 0 to 100, 0 no effect, 100 complete control
Method in brief: as §1

dayflower = test: Test E preemergence; assay type: in vivo, Commelina virginica; details: for Dayflower, VA plant response rating: scale 0 to 100 (0 no effect, 100 complete control); for Plant response rating, Dayflower, VA: scale 0 to 100, 0 no effect, 100 complete control
Method in brief: as §1

waterhemp = test: Test E preemergence; assay type: in vivo, Amaranthus rudis; details: for Waterhemp plant response rating: scale 0 to 100 (0 no effect, 100 complete control); for Plant response rating, Waterhemp: scale 0 to 100, 0 no effect, 100 complete control
Method in brief: as §1

Brazilian crabgrass [4] = test: Test E postemergence; assay type: in vivo, Digitaria horizontalis; details: Digitaria horizontalis, post-emergence, read-out: Plant response rating, Crabgrass, Brazil
Method in brief: as §1

wild poinsettia = test: Test E preemergence; assay type: in vivo, Euphorbia heterophylla; details: for Poinsettia, Wild plant response rating: scale 0 to 100 (0 no effect, 100 complete control); for Plant response rating, Poinsettia, Wild: scale 0 to 100, 0 no effect, 100 complete control
Method in brief: as §1

[5] = Postemergence, 31 g ai/ha, scale 0 to 100
[6] = Postemergence, 62 g ai/ha, scale 0 to 100
[7] = Postemergence, 125 g ai/ha, scale 0 to 100
[8] = postemergence, 16 g ai/ha, scale 0 to 100, 0 no effect, 100 complete control

N#Cc1cccc(Oc2ncc(Cl)cn2)c1-n1cc(Br)cn1 [Compound 52, 2-(4-bromo-1H-pyrazol-1-yl)-3-[(5-chloro-2-pyrimidinyl)oxy]benzonitrile]
Ryegrass, Italian plant response rating (Italian ryegrass [1]; 16 g ai/ha): 0
Ryegrass, Italian plant response rating (Italian ryegrass [1]; 31 g ai/ha): 0
Ryegrass, Italian plant response rating (Italian ryegrass [1]; 62 g ai/ha): 0
Plant response rating, Ryegrass, Italian (Italian ryegrass [1]; 125 g ai/ha): 60
Plant response rating, Ryegrass, Italian (Italian ryegrass [1]; 250 g ai/ha): 90
Ragweed plant response rating (ragweed; 16 g ai/ha): 0
Ragweed plant response rating (ragweed; 31 g ai/ha): 0
Ragweed plant response rating (ragweed; 62 g ai/ha): 0
Plant response rating, Ragweed (ragweed; 125 g ai/ha): 5
Plant response rating, Ragweed (ragweed; 250 g ai/ha): 70
pest or weed control at 31 g/ha (field bindweed; [5]): 50%
pest or weed control at 62 g/ha (field bindweed; [6]): 65%
pest or weed control at 125 g/ha (field bindweed; [7]): 65%
pest or weed control at 16 g/ha (field bindweed; [8]): 50%
Soybean plant response rating (soybean; 16 g ai/ha): 0
Soybean plant response rating (soybean; 31 g ai/ha): 0
Soybean plant response rating (soybean; 62 g ai/ha): 0
Plant response rating, Soybean (soybean; 125 g ai/ha): 60
Plant response rating, Soybean (soybean; 250 g ai/ha): 90
Crabgrass, Brazil plant response rating (Brazilian crabgrass [2]; 16 g ai/ha): 0
Crabgrass, Brazil plant response rating (Brazilian crabgrass [2]; 31 g ai/ha): 90
Crabgrass, Brazil plant response rating (Brazilian crabgrass [2]; 62 g ai/ha): 100
Plant response rating, Crabgrass, Brazil (Brazilian crabgrass [2]; 125 g ai/ha): 100
Plant response rating, Crabgrass, Brazil (Brazilian crabgrass [2]; 250 g ai/ha): 100
pest or weed control at 31 g/ha (Italian ryegrass [3]; [5]): 0%
pest or weed control at 62 g/ha (Italian ryegrass [3]; [6]): 0%
pest or weed control at 125 g/ha (Italian ryegrass [3]; [7]): 10%
pest or weed control at 16 g/ha (Italian ryegrass [3]; [8]): 0%
Pigweed, Palmer plant response rating (palmer pigweed; 16 g ai/ha): 25
Pigweed, Palmer plant response rating (palmer pigweed; 31 g ai/ha): 100
Pigweed, Palmer plant response rating (palmer pigweed; 62 g ai/ha): 100
Plant response rating, Pigweed, Palmer (palmer pigweed; 125 g ai/ha): 100
Plant response rating, Pigweed, Palmer (palmer pigweed; 250 g ai/ha): 100
Foxtail, Giant plant response rating (giant foxtail; 16 g ai/ha): 0
Foxtail, Giant plant response rating (giant foxtail; 31 g ai/ha): 70
Foxtail, Giant plant response rating (giant foxtail; 62 g ai/ha): 70
Plant response rating, Foxtail, Giant (giant foxtail; 125 g ai/ha): 100
Plant response rating, Foxtail, Giant (giant foxtail; 250 g ai/ha): 100
Morningglory plant response rating (morningglory; 16 g ai/ha): 0
Morningglory plant response rating (morningglory; 31 g ai/ha): 5
Morningglory plant response rating (morningglory; 62 g ai/ha): 35
Plant response rating, Morningglory (morningglory; 125 g ai/ha): 95
Plant response rating, Morningglory (morningglory; 250 g ai/ha): 98
Velvetleaf plant response rating (velvetleaf; 16 g ai/ha): 0
Velvetleaf plant response rating (velvetleaf; 31 g ai/ha): 0
Velvetleaf plant response rating (velvetleaf; 62 g ai/ha): 75
Plant response rating, Velvetleaf (velvetleaf; 125 g ai/ha): 85
Plant response rating, Velvetleaf (velvetleaf; 250 g ai/ha): 90
Sandbur plant response rating (sandbur; 16 g ai/ha): 0
Sandbur plant response rating (sandbur; 31 g ai/ha): 0
Sandbur plant response rating (sandbur; 62 g ai/ha): 10
Plant response rating, Sandbur (sandbur; 125 g ai/ha): 35
Plant response rating, Sandbur (sandbur; 250 g ai/ha): 80
Dayflower, VA plant response rating (dayflower; 16 g ai/ha): 0
Dayflower, VA plant response rating (dayflower; 31 g ai/ha): 0
Dayflower, VA plant response rating (dayflower; 62 g ai/ha): 5
Plant response rating, Dayflower, VA (dayflower; 125 g ai/ha): 70
Plant response rating, Dayflower, VA (dayflower; 250 g ai/ha): 98
Waterhemp plant response rating (waterhemp; 16 g ai/ha): 80
Waterhemp plant response rating (waterhemp; 31 g ai/ha): 100
Waterhemp plant response rating (waterhemp; 62 g ai/ha): 100
Plant response rating, Waterhemp (waterhemp; 125 g ai/ha): 100
Plant response rating, Waterhemp (waterhemp; 250 g ai/ha): 100
pest or weed control at 31 g/ha (Brazilian crabgrass [4]; [5]): 30%
pest or weed control at 62 g/ha (Brazilian crabgrass [4]; [6]): 30%
pest or weed control at 125 g/ha (Brazilian crabgrass [4]; [7]): 40%
pest or weed control at 16 g/ha (Brazilian crabgrass [4]; [8]): 15%
Poinsettia, Wild plant response rating (wild poinsettia; 16 g ai/ha): 0
Poinsettia, Wild plant response rating (wild poinsettia; 31 g ai/ha): 0
Poinsettia, Wild plant response rating (wild poinsettia; 62 g ai/ha): 25
Plant response rating, Poinsettia, Wild (wild poinsettia; 125 g ai/ha): 50
Plant response rating, Poinsettia, Wild (wild poinsettia; 250 g ai/ha): 100

— patent US9695155B2, “Herbicidal substituted pyrimidinyloxy benzene compounds” (E. I. DU PONT DE NEMOURS AND COMPANY, priority 2013, dated 2017)
